# Settings: buffer; pH 7.4; 200.0 µM
row,Compound,solubility kinetic [µg/mL]
1,CC(C)(CCl)C(=O)Nc1ccnc(-c2ccncc2)n1,6
2,CCn1c(=O)c(C(=O)NCc2ccc3c(c2)OCO3)c(O)c2ccccc21,< 0.4
3,N#Cc1ccccc1COC(=O)c1ccc(Br)o1,28.4
4,O=C(O)CN1C(=O)S/C(=C\c2cccnc2)C1=O,> 39.6
5,CCC(Oc1ccccc1F)C(=O)Nc1ccc2c(c1)n(C)c(=O)n2C (stereo unspecified),49
6,CCN(CC)C1CC(=O)N(c2cccc(Cl)c2)C1=O (stereo unspecified),> 42.1
7,Nc1nc(NCCOCCO)nc(N2CCCCCC2)c1[N+](=O)[O-],47.4
8,COc1ccc(Cl)cc1NC(=O)/C=C/C(=O)O,> 38.3
9,O=C(C1CCCCC1)N1CCN(c2nc(-c3ccc(F)cc3)cs2)CC1,1.5
10,O=C(CC(=O)NCc1ccc(Cl)cc1)NCc1ccccc1,7.1
11,FC(F)(F)c1ccc(NC2=NCCCS2)cc1,15.6
12,Cc1cccc(-n2ccc(=O)c(C(=O)O)n2)c1,> 34.5
13,O=c1c2cc([N+](=O)[O-])ccc2nc2n1CCCC2,> 36.8
14,O=C(NCCN1CCCCC1)Nc1ccccc1Cl,> 42.3
15,CC(=O)c1cccc(NC(=O)CCC(=O)Oc2ccc(C)cc2)c1,> 48.8
16,O=C(Cn1ncc2c([nH]c3ccccc32)c1=O)N1CCOCC1,> 46.8
17,COc1ccc(S(=O)(=O)N2CCCC2)cc1C(=O)O,> 42.8
18,O=C(CCC(=O)c1ccccc1)Nc1ccc(C(=O)O)cc1,> 44.6
19,Cc1ccc(C(=O)NC(C)C2CC3CCC2C3)cc1 (stereo unspecified),< 0.6
20,Cc1ccc2c(CN3CC(C)CC(C)C3)cc(=O)oc2c1 (stereo unspecified),4.3
21,Cc1ccc(OCC(=O)N2c3ccccc3CC2C)c([N+](=O)[O-])n1 (stereo unspecified),21.3

row,Compound,solubility kinetic [µg/mL]
1,CN1CCN(c2nc3ccccn3c(=O)c2C=C(C#N)C#N)CC1,48
2,O=C(CN1C(=O)NC2(CCCC2)C1=O)Nc1nc(-c2ccccc2)cs1,1.7
3,CN(C(=O)COC(=O)c1ccc[nH]c1=O)C1CCCCC1,> 43.9
4,OCC(O)CN1CCCC1 (stereo unspecified),21.4
5,O=Cc1c[nH]c2ccc(C(=O)c3ccccc3)cc12,4.3
6,CN(CCOc1ccc(CC2SC(=O)NC2=O)cc1)c1ccccn1.O=C(O)/C=C\C(=O)O (stereo unspecified),68.2
7,Cc1csc(=O)n1CC(=O)Nc1ccc(C(C)C)cc1,29.4
8,CC(C)(C)NC(=O)CSCc1ccc(Br)cc1,> 47.4
9,CC(=O)c1sc(-c2ccccc2)cc1NS(=O)(=O)c1ccccc1,< 0.8
10,N=c1oc2ccccc2cc1C(=O)Nc1cccc(F)c1,0.3
11,NCc1oc(-c2ccccc2)cc1C(=O)O,22.2
12,COc1ccc(N2CC(C(=O)Nc3ccncc3)CC2=O)cc1 (stereo unspecified),> 46.7
13,COc1ccc(CCNC(=O)CCc2ccsc2)cc1OC,> 47.9
14,C=C(C)CN(CC)C(=O)CC1C(=O)NCCN1CC(C)(C)C (stereo unspecified),39.6
15,COc1cc2ncnc(NCc3ccc(F)cc3)c2cc1OC,> 47
16,CSc1ccccc1C(=O)NC(C)c1ccc(-n2ccnc2)cc1 (stereo unspecified),> 50.6
17,Cc1ccc(OCC(O)CNC2CCCC2)cc1C.Cl (stereo unspecified),> 45
18,CC(=O)c1cccc(S(=O)(=O)Nc2c(C)nn(C)c2C)c1,> 46.1
19,CCCCCSc1ncccc1C(=O)O,> 33.8
20,Cc1ccc(C)n1-c1cccc(C(=O)Nc2ccccc2)c1,13.9
21,O=S(=O)(NCCN1CCCC1)c1ccc(Br)cc1,46.9

row,Compound,solubility kinetic [µg/mL]
1,CCCS(=O)(=O)Nc1c(C(=O)O)[nH]c2ccc(OC)cc12,46.3
2,Cc1ccccc1C(=O)Nc1ccnc(-c2ccncc2)n1,0.5
3,CC(C)n1c(SCC(=O)NC2CC2)nnc1-c1ccco1,> 46
4,Cn1cc(Br)c(C(=O)N2CCCCCC2)n1,> 42.9
5,CC(=O)NC(Cc1ccc(O)cc1)C(=O)NN (stereo unspecified),> 35.6
6,Nc1cc(C(F)(F)F)ccc1NCCc1ccccn1,36.8
7,COc1cccc(CN2CCN(c3ccc(F)cc3)C2=O)c1,29.9
8,OC1=C(O)c2nc3cc(F)ccc3nc21,> 30.6
9,O=C1ON=C(c2ccccc2)/C1=C/c1cccnc1,35.8
10,C=C1SC(Nc2c(C)cccc2C)=NC12CCCCC2,< 0.3
11,CCCc1cnc(N2CCN(C(=O)c3ccccc3)CC2)nc1,> 46.6
12,Nc1ccccc1SCc1c(Cl)cccc1Cl,< 0.6
13,CC1=CCC2C(=O)N(c3ccc(S(N)(=O)=O)cc3)C(=O)C2C1 (stereo unspecified),> 48.1
14,Cc1ccccc1CN(C)CCc1ccccn1.O=C(O)C(=O)O,25.6
15,O=C(COC(=O)/C=C/c1ccccc1[N+](=O)[O-])NCc1ccco1,18.7
16,CC(=O)N1CCCC(C(=O)c2ccc(Oc3ccccc3)cc2)C1 (stereo unspecified),> 48.5
17,COc1ccccc1C1(O)C(=O)Nc2ccccc21 (stereo unspecified),> 38.3
18,O=C(O)CCNC(=O)/C(=C/c1ccco1)NC(=O)c1ccco1,> 47.7
19,COC(=O)c1ccc(N2CCN(C)CC2)c(NC(=O)c2cccs2)c1,> 53.9
